A short description of data set [1]: Inhibition of PKA (unknown origin) by mobility shift assay. Further details: species or system Homo sapiens.
Data set [2] addresses T1, Tyrosine-protein kinase JAK3 (Homo sapiens, UniProt P52333).
T1 sequence (P52333 whole entry): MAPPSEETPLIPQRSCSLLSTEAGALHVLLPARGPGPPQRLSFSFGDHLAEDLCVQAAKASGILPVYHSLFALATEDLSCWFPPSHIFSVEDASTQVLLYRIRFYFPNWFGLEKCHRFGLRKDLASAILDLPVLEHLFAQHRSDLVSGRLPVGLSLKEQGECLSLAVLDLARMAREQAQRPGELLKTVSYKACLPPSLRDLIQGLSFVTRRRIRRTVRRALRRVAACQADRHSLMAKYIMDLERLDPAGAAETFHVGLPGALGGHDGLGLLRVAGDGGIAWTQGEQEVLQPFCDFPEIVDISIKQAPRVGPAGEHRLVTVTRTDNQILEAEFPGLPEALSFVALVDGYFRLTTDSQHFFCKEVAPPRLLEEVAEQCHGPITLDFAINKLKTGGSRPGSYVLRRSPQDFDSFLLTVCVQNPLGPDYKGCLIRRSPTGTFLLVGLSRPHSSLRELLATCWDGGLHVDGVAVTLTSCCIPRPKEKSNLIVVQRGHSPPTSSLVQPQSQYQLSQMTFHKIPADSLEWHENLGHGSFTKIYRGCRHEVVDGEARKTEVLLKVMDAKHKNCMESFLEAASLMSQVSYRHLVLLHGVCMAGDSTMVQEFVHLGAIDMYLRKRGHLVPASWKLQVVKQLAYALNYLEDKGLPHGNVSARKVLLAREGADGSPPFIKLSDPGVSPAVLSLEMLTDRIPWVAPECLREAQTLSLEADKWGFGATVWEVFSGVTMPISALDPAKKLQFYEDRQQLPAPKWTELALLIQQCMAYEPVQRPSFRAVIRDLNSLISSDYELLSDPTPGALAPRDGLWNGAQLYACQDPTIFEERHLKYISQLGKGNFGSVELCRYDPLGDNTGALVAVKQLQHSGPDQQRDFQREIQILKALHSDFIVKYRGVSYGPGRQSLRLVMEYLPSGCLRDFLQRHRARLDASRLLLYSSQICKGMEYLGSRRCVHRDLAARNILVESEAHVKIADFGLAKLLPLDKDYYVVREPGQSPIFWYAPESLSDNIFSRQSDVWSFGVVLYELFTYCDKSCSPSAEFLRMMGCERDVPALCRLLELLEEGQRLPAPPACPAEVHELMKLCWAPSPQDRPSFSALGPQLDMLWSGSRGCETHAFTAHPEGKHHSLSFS
In words: Inhibition of JAK3 (unknown origin) by mobility shift assay.

Data set [3] concerns the target Glycogen synthase kinase-3 beta (Homo sapiens) (UniProt P49841). In words: Inhibition of GSK3b (unknown origin) at 50 ug/ml by mobility shift assay relative to control.
For data set [4], the target named is T2, Tyrosine-protein kinase ZAP-70 (Homo sapiens) (UniProt P43403).
T2 sequence (whole entry): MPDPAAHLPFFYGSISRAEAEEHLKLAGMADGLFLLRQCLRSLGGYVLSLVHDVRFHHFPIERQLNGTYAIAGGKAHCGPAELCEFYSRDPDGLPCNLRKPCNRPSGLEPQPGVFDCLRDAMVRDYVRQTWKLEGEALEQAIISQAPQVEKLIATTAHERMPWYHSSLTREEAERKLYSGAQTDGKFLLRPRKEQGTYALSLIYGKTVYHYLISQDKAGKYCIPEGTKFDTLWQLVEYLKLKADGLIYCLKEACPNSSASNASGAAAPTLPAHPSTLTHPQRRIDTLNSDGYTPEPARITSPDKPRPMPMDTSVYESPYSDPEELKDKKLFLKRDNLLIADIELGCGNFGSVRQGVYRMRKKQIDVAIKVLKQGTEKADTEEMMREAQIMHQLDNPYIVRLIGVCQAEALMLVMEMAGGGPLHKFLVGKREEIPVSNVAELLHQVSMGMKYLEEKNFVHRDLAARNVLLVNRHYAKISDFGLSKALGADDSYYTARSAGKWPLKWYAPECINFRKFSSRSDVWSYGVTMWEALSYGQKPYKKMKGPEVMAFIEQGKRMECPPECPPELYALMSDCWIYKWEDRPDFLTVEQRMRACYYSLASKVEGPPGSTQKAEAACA
In words: Inhibition of ZAP70 (unknown origin) at 50 ug/ml by mobility shift assay relative to control.

A further data set is filed under the species Homo sapiens. In words: Inhibition of PKA (unknown origin) at 50 ug/ml by mobility shift assay relative to control.
Data set [5] has as its target Protein kinase C theta (Homo sapiens) (UniProt Q04759). The data set is described as follows: Inhibition of PKCtheta (unknown origin) at 50 ug/ml by mobility shift assay relative to control.
In data set [6] the target is RAC-alpha serine/threonine-protein kinase (Homo sapiens) (UniProt P31749). In words: Inhibition of AKT1 (unknown origin) at 50 ug/ml by mobility shift assay relative to control.
For data set [7], the target named is T3, JAK3 (Tyrosine-protein kinase JAK3) (Homo sapiens, UniProt P52333).
T3 sequence (P52333 whole entry): T1 sequence (P52333 whole entry)
The data set is described as follows: Inhibition of JAK3 (unknown origin) at 50 ug/ml by mobility shift assay relative to control. Particulars: JAK3 kinase (single protein, unknown origin).

Data set [8] deals with ALK tyrosine kinase receptor (Homo sapiens) (UniProt Q9UM73). The data set is described as follows: Inhibition of ALK (unknown origin) at 50 ug/ml by mobility shift assay relative to control.
Data set [9] deals with Proto-oncogene tyrosine-protein kinase Src (Homo sapiens) (UniProt P12931). In words: Inhibition of SRC (unknown origin) at 50 ug/ml by mobility shift assay relative to control.
Data set [10] deals with Serine/threonine-protein kinase B-raf (Homo sapiens) (UniProt P15056). The data set is described as follows: Inhibition of BRAF (unknown origin) at 50 ug/ml by Lanthascreen assay relative to control.
Data set [11] concerns the target Tyrosine-protein kinase SYK (Homo sapiens) (UniProt P43405). In words: Inhibition of SYK (unknown origin) at 50 ug/ml by mobility shift assay relative to control.
The target of data set [12] is Focal adhesion kinase 1 (Homo sapiens) (UniProt Q05397). In words: Inhibition of FAK (unknown origin) at 50 ug/ml by Lanthascreen assay relative to control. For orientation: Time-resolved FRET reads energy transfer from a long-lived donor to a nearby acceptor.
Data set [13] has as its target T4, 3-phosphoinositide-dependent protein kinase 1 (Homo sapiens) (UniProt O15530).
T4 sequence (whole entry): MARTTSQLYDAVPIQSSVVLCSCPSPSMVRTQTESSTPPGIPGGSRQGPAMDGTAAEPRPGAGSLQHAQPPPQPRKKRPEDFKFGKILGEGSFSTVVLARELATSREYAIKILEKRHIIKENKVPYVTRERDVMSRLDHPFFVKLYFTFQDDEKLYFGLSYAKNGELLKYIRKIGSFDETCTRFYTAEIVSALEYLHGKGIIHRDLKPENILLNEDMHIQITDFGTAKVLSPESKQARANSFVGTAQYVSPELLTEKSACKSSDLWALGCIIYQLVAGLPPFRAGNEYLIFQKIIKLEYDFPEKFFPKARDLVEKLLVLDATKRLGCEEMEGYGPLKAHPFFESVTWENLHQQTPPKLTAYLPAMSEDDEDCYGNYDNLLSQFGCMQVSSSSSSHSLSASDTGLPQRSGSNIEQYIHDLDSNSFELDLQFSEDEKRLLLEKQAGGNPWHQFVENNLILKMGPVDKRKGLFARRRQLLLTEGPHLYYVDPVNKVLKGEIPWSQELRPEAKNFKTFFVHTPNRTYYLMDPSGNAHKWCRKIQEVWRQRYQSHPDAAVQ
The data set is described as follows: Inhibition of PDK1 (unknown origin) at 50 ug/ml by mobility shift assay relative to control.

The target in data set [14] is Serine/threonine-protein kinase pim-1 (Homo sapiens) (UniProt P11309). In words: Inhibition of PIM1 (unknown origin) at 50 ug/ml by mobility shift assay relative to control.

As a reminder, the IC50 is the concentration needed to halve the response being measured. A word on the inhibition: it is the relative decrease from the control value, in per cent.

Chain of RAC-alpha serine/threonine-protein kinase (Homo sapiens) (P31749 whole entry): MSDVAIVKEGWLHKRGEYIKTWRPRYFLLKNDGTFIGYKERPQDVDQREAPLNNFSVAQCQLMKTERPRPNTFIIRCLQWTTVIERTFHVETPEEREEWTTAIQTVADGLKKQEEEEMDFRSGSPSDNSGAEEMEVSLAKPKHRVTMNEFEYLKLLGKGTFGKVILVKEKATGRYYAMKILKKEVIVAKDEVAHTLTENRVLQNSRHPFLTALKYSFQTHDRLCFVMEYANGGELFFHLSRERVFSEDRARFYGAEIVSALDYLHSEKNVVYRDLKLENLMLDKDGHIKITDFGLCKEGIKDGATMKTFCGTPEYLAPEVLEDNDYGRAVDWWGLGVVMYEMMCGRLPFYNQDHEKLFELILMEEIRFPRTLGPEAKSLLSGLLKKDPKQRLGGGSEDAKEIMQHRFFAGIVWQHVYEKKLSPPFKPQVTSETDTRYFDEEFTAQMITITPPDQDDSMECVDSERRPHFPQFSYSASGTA
Chain of Glycogen synthase kinase-3 beta (Homo sapiens) (P49841 whole entry, looked up): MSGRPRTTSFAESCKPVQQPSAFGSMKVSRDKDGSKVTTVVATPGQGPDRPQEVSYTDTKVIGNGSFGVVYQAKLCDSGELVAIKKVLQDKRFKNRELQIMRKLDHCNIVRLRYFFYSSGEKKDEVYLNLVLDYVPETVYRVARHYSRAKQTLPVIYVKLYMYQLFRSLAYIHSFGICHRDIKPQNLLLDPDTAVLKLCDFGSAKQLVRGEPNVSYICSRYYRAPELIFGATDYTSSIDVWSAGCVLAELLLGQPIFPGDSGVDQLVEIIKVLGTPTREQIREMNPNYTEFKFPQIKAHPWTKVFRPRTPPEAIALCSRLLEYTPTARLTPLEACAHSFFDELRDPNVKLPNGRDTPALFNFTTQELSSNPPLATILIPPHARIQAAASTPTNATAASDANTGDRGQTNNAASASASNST
Chain of Serine/threonine-protein kinase B-raf (Homo sapiens) (P15056 whole entry): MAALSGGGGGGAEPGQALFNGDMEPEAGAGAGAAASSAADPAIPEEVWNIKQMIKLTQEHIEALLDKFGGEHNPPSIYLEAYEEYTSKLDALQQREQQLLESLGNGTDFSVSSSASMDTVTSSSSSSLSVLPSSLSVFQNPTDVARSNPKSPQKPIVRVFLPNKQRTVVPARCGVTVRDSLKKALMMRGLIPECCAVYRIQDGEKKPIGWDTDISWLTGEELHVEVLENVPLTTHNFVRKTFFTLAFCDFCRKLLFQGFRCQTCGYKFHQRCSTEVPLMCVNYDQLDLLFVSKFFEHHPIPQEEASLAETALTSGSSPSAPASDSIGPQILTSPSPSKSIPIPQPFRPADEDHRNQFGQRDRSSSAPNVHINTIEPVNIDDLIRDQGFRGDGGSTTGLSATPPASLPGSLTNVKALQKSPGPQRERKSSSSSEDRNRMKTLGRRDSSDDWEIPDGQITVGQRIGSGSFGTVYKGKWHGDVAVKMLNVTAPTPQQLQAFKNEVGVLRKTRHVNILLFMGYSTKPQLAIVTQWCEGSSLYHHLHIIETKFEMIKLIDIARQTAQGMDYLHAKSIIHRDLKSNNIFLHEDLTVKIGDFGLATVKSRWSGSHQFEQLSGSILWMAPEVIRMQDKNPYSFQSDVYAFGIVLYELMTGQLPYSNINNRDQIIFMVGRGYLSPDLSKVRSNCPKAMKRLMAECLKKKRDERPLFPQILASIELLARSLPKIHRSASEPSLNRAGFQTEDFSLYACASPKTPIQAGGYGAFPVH
Chain of Proto-oncogene tyrosine-protein kinase Src (Homo sapiens) (P12931 2-536 limits assumed): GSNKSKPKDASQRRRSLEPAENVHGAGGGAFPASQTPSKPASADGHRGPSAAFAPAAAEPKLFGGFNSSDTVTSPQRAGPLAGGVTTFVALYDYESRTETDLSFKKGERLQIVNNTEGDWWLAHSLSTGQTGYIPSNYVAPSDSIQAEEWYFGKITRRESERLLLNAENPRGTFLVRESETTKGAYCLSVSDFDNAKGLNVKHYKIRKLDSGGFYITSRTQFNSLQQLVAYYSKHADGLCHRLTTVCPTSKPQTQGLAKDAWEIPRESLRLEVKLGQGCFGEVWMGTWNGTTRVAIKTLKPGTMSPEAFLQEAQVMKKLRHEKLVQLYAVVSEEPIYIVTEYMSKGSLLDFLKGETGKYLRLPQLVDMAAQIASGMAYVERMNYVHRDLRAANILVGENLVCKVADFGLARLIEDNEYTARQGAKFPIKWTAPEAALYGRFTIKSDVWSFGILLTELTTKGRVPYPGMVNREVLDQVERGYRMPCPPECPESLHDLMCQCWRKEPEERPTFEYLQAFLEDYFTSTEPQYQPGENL
Chain of ALK tyrosine kinase receptor (Homo sapiens) (Q9UM73 19-1620 limits assumed): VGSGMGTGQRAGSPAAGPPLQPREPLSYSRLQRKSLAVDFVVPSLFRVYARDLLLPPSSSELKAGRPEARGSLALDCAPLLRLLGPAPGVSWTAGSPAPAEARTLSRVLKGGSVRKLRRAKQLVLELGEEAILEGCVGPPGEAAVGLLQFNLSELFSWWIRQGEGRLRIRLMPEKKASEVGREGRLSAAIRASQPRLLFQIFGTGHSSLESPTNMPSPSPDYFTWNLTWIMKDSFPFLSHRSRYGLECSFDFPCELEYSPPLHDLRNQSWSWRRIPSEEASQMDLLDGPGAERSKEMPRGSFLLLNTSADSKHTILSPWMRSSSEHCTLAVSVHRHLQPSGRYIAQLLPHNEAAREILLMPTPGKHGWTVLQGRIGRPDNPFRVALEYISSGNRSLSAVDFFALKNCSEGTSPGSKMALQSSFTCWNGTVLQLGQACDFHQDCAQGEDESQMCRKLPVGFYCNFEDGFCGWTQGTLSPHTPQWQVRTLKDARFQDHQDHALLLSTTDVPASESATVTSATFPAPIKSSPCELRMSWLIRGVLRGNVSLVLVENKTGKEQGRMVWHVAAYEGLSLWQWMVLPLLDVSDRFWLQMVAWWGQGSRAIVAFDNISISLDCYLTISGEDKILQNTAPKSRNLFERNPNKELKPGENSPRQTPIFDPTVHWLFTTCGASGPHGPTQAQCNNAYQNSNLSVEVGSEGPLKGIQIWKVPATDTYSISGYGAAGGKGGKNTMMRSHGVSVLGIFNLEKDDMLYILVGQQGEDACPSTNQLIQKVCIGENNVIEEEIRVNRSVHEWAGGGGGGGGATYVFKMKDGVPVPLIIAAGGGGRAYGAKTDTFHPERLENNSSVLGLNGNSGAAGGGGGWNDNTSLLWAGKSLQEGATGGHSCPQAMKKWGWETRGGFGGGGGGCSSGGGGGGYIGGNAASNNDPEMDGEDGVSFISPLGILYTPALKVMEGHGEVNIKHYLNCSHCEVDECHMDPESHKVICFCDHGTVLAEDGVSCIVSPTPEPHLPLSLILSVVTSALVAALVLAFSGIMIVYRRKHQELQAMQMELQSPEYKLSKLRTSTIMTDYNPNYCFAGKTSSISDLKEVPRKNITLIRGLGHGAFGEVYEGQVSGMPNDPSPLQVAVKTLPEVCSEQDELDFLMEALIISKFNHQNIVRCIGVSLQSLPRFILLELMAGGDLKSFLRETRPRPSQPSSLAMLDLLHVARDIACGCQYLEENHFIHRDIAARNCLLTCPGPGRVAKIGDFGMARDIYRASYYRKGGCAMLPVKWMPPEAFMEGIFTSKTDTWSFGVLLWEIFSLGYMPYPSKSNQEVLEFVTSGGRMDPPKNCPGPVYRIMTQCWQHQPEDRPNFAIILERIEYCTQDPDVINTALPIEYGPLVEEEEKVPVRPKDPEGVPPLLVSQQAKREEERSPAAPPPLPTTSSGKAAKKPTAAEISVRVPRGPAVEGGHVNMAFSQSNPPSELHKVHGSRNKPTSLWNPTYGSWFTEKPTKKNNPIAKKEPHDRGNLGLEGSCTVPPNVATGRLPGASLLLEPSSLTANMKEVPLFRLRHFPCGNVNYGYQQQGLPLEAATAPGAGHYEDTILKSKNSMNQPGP
Chain of Protein kinase C theta (Homo sapiens) (Q04759 whole entry, looked up): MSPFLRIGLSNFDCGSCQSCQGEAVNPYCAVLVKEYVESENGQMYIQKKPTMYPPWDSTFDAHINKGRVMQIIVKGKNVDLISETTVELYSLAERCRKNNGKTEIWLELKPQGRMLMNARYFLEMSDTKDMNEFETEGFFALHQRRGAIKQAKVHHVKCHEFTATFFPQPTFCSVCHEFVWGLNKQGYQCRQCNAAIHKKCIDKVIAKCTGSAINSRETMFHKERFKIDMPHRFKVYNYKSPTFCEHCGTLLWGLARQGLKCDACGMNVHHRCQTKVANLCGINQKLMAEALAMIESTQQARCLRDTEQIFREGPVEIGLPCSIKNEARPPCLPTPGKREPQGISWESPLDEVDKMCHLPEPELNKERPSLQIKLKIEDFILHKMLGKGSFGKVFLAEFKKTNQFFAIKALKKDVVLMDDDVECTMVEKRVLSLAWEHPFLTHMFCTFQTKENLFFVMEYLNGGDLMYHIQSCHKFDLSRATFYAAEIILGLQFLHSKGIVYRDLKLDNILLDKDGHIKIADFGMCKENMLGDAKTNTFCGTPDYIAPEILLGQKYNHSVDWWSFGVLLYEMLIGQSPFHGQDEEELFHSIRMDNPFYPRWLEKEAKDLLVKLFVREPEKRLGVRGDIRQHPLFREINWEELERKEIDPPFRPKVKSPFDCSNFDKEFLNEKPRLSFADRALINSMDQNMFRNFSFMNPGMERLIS
Chain of Serine/threonine-protein kinase pim-1 (Homo sapiens) (P11309 whole entry, looked up): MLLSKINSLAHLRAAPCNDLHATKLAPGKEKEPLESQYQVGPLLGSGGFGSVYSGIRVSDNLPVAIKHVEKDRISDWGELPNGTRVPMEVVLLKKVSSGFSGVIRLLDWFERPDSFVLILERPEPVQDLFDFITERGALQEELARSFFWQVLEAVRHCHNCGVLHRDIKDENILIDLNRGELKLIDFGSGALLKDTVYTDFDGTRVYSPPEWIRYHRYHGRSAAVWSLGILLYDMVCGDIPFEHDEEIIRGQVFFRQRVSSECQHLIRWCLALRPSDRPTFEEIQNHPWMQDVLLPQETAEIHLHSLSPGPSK

On to `CN[C@@H]1C[C@H]2O[C@@](C)([C@@H]1OC)n1c3ccccc3c3c4c(c5c6ccccc6n2c5c31)C(=O)NC4`, for which the IC50 in data set [1] stood at 0.0022 µM.

As to `C=C(C)c1ccc2c(c1)CC[C@H]1[C@@](CO)(C(=O)O)CCC[C@]21C`, in data set [2], the IC50 was more than 100 µM.

Consider `CC(C)c1ccc2c(c1)CC[C@H]1[C@@](CO)(C(=O)O)CCC[C@]21C`, for which the IC50 in data set [2] is more than 100 µM.

`CC(=O)c1ccc2c(c1)CC[C@H]1[C@@](CO)(C(=O)O)CCC[C@]21C`: the IC50 in [2] is more than 100 µM.

Turning to `CC(C)(O)c1ccc2c(c1)CC[C@H]1[C@](C)(C(=O)O)CCC[C@]21C`, the IC50 in data set [2] is more than 100 µM.

As for `CC(C)c1cc2c(cc1O)[C@@]1(C)CCC[C@@](C)(C=O)[C@@H]1CC2` [18-OXOFERRUGINOL], the IC50 in [2] is more than 100 µM.

Consider `CC(C)c1ccc2c(c1)CC[C@H]1[C@](C)(C(=O)O)CCC[C@]21C` [DEHYDROABIETIC ACID], for which the inhibition in [3] turned out to be 20.1%; in data set [4] it was 52.5%; in the data set listed under Homo sapiens, 69.9%; in data set [5], 0.9%; in [6], 53.6%; in data set [8] it was 17.6%. Further, the inhibition in data set [9] was 61.2%; in data set [10], -7.3%; in [11], 81%; in data set [12], 67.1%; in [13], 46.1%; in data set [14], 10.7%. The inhibition at 50 ug/ml in [7] is 74.9%. Moreover, the IC50 in data set [2] was more than 100 µM.

The record behind these values is ChEMBL document CHEMBL4251714, “Isolation, Characterization, and Structure-Activity Relationship Analysis of Abietane Diterpenoids from Callicarpa bodinieri as Spleen Tyrosine Kinase Inhibitors” (J Nat Prod, 2018).
